{"source": "paper PMC7360964", "about": "“Auto‐inhibition of Mif2/CENP‐C ensures centromere‐dependent kinetochore assembly in budding yeast” (The EMBO Journal, 2020)", "key": {"[1]": {"system": "Mif2‐FRB strains", "assay": "Anchor-away growth assay, Mif2 alleles", "format": "cell-based, budding yeast", "settings": "rapamycin"}, "[2]": {"system": "yeast growth", "assay": "Galactose-inducible overexpression growth assay (serial dilution)", "format": "cell-based, budding yeast", "settings": "two-micron pESC plasmid, 30°C", "description": "What is the consequence of expressing Mif2^Ame1‐N swap in cells? […] To assess this effect in a more systematic manner, we expressed Mif2‐wt, Mif2‐ΔN, or Mif2^Ame1‐N swap under the control of a galactose‐inducible promoter in an otherwise wild‐type background. […] To further analyze the toxic effect of Mif2^Ame1‐N swap in cells, we stably integrated the different Mif2 versions under the control of the GAL10 promoter at the URA3 locus and again analyzed growth on plates. We included an additional strain in which Mif2 swap was mutated so that it cannot bind Mtw1c (R10E mutation in the RxxG motif). […]\nFigure 8 Auto‐inhibition of Mif2 is crucial for chromosome segregation and cell viability • Phenotypic analysis of Mif2 mutants using a galactose‐inducible overexpression system. […] Distribution of fluorescently labeled chromosome III was analyzed in large‐budded cells 16 h after switching the medium to galactose. […] Only large‐budded cells were included in the analysis. • Quantification of (D) in which large‐budded cells were classified according to their Mtw1‐GFP signal into the four indicated groups. A total of 100 cells were quantified for every strain. Mean values of the three indicated groups were calculated and plotted in a bar chart. […]"}, "[3]": {"system": "budding yeast", "settings": "ref Hornung et al, 2014; cited from earlier work", "description": "Figure 1 Ame1 and Mif2 are Mtw1c receptors that promote outer kinetochore assembly Left panel: Comparison of kinetochore assembly plans. Generally, inner kinetochores are represented by the […] centromere‐associated network (CCAN) of which Ame1 and Mif2 are the only essential subunits in S. cerevisiae. Right panel: Among other functions, Ame1 and Mif2 both act as receptors for the outer kinetochore component Mtw1c using short binding motifs at their N‐termini. An Ame1ΔN is lethal, while a Mif2ΔN mutant is viable. Two different scenarios for Mtw1c‐receptor configurations are indicated."}, "[4]": {"system": "Mtw1‐GFP kinetochores", "assay": "Kinetochore microscopy (Mtw1-GFP, Spc42-mCherry) in Mif2-overexpressing cells", "format": "cell-based, budding yeast", "settings": "large-budded cells, galactose, 100 cells per strain, 2 independent experiments", "procedure": "Figure 8 Auto‐inhibition of Mif2 is crucial for chromosome segregation and cell viability • Phenotypic analysis of Mif2 mutants using a galactose‐inducible overexpression system. Strains harboring the indicated Mif2 expression constructs on pESC plasmids were plated in serial dilution on doHIS‐glucose or doHIS‐raffinose/galactose plates and incubated at 30°C. • Serial dilution assay of chromosomally integrated Mif2 variants under the control of the pGAL promoter. Strains were plated on YEP‐glucose and YEP‐raffinose/galactose plates and incubated at 25°C. • Analysis of chromosome segregation in strains from (B). Distribution of fluorescently labeled chromosome III was analyzed in large‐budded cells 16 h after switching the medium to galactose. Scale bar represents 2 μm. • Microscopic analysis of kinetochores in Mif2‐overexpressing cells visualizing Mtw1‐GFP and Spc42‐mCherry. Images of representative large‐budded cells after 16 h in galactose are shown. One kinetochore cluster is enlarged in the white box for each strain. Scale bar represents 5 μm. […] Only large‐budded cells were included in the analysis. • Quantification of (D) in which large‐budded cells were classified according to their Mtw1‐GFP signal into the four indicated groups. A total of 100 cells were quantified for every strain. Mean values of the three indicated groups were calculated and plotted in a bar chart. […]"}, "[5]": {"system": "MN", "assay": "Analytical SEC of Mif2 variants with MN", "format": "binding, budding yeast", "settings": "10 μM, 1 h at 4°C", "description": "(§1) If intramolecular interactions between the Mif2 N‐terminus and other parts of the molecule limit the ability to bind MN, then removing this auto‐inhibitory domain should increase the affinity for MN. […] We conclude that apart from residues in its N‐terminus, also residues in the signature motif and AT‐hook of Mif2 are responsible for the ability to adopt an auto‐inhibited conformation.\n(§2) Figure 6 Mif2 auto‐inhibition depends on its Cse4 and DNA‐binding motifs • Schematic introduction of Mif2wt and Mif2‐ΔsigAT in which its Cse4 and DNA‐binding motifs have been removed. […]\n(§3) The GST pulldown experiment was performed using BSA‐preblocked GSH Sepharose beads. […] Beads were washed twice in pulldown buffer, before Laemmli sample buffer was added to the beads (GST pulldown) or proteins were eluted in pulldown buffer supplemented with 1 mg/ml Flag peptide before addition of Laemmli sample buffer (Flag pulldown) and samples were analyzed on a Coomassie Brilliant Blue‐stained SDS–PAGE gel or Western blotting. […] Elution of proteins was monitored at 280 nm. 100 μl fractions were collected and analyzed by SDS–PAGE and Coomassie Brilliant Blue staining or Western blotting. […] After several washes with lysis buffer, proteins were eluted with 0.2 mg/ml 3xFlag peptide in lysis buffer, and fractions were analyzed by Western blotting. […]"}, "[6]": {"system": "Mtw1‐Nnf1 complex (MN)", "assay": "Flag pulldown of MN by Mif2 variants", "format": "binding, budding yeast", "settings": "bait 1 μM, MN 3 μM; Coomassie or Western blot against His-tag on Nnf1", "description": "as §1, §2, §3"}}}
{"molecule": "Mif2‐ΔN: Mif2 lacking the N-terminus (Mif2-D1-35)", "values": [{"measurement": "viability", "setting": "[1]; ctf3 or chl4 deletion backgrounds", "result": "lethality"}, {"measurement": "rescue of Mif2-FRB lethality", "setting": "[1]; ctf19Δ background", "result": "not Mif2‐ΔN, was able to rescue the lethality"}, {"measurement": "effect of overexpression on growth", "setting": "[2]", "result": "tolerated well and did not greatly impact yeast viability"}, {"measurement": "viability / phenotype", "setting": "[3]", "result": "viable"}, {"measurement": "kinetochore signal localization", "setting": "[4]", "result": "closely associated with spindle pole bodies"}]}
{"molecule": "Mif2‐ΔsigAT: Mif2 variant that lacks signature motif and AT-hook (protein, left off: Flag, C-terminal, kept, Mif2 variant that lacks signature motif and AT-hook) MDYMKLGLKSRKTGIDVKQDIPKDEYSMENIDDFFKDDETSLISMRRKSRRKSSLFLPSTLNGDTKNVLPPFLQSYKSQDDEVVQSPSGKGDGSRRSSLLSHQSNFLSPANDFEPIEEEPEQEENDIRGNDFATPITQKLSKPTYKRKYSTRYSLDTSESPSVRLTPDRITNKNVYSDVPDLVADEDDDDRVNTSLNTSDNALLEDELEDDGFIPESEEDGDYIESDSSLDSGSDSASDSDGDNTYQEVEEEAEVNTNDNEDDYIRRQASDVVRTDSIIDRNGAKENLIPEDPNEDIIERIESGGIENGEWLKHGILEANVKISDTKEETKDEIIAFAPNLSQTEQVKDTKDENFALEIMFDKHKEYFASGILKLPAISGQKKLSNSFRTYITFHVIQGIVEVTVCKNKFLSVKGSTFQIPAFNEYAIANRGNDEAKMFFVQVTVSEDANDDNDKELDSTFDTFG", "values": [{"measurement": "effect of overexpression on growth", "setting": "[2]", "result": "impairs growth"}, {"measurement": "binding to MN by SEC", "setting": "[5]", "result": "increased binding to MN as compared to Mif2‐wt"}, {"measurement": "co-purification of MN", "setting": "[6]", "result": "able to co‐purify a significantly increased amount of MN"}]}
